Laboratory results as given in ChEMBL document CHEMBL1148967, “Correction of the structure of a new sesquiterpene from Cistus creticus ssp. creticus” (J Nat Prod, 2004).
Activity calls are given as the source filed them. The rule behind the calls is not given here.

Key:
[1] = system: MCF7; assay: Cytotoxicity against human MCF7 cells assessed as reduction in growth rate at 100 uM after 48 hrs; assay type: functional; parameters: scale not given: the % may be the effect or the level left
[2] = system: PBMC; assay: Cytotoxicity against human PBMC assessed as reduction in growth rate at 100 uM after 48 hrs; assay type: cell-based
[3] = system: NCI-H460; assay: Cytotoxicity against human H460 cells assessed as reduction in growth rate at 100 uM after 48 hrs; assay type: functional; parameters: scale not given: the % may be the effect or the level left
[4] = system: SF-268; assay: Cytotoxicity against human SF268 cells assessed as reduction in growth rate at 100 uM after 48 hrs; assay type: functional, cell-based

C=C(C)[C@H]1CC=C2CCC[C@@H](C)[C@]2(C)C1
Activity [1]: 93.6%
Activity [2]: Non-toxic
Activity [3]: 80.8%
Activity [4]: inactive
